Experimental data from ChEMBL document CHEMBL1150558, “Enantiomeric Composition of Trans-Dihydrodiols Formed from Meso-K-Region Arene Oxides by Microsomal Epoxide Hydrolase” (Bioorg Med Chem Lett, 1992).

What was measured:
[1] = target: T1, Epoxide hydrolase 1 (Rattus norvegicus) (UniProt P07687); experiment: Percent Enantiomeric composition (R,R) of trans-Dihydrodiol formed by Microsomal Epoxide Hydrolase from rat liver at 50 mM Tris-HCl buffer, pH 8.4 at 37 degrees C
T1 sequence (whole entry): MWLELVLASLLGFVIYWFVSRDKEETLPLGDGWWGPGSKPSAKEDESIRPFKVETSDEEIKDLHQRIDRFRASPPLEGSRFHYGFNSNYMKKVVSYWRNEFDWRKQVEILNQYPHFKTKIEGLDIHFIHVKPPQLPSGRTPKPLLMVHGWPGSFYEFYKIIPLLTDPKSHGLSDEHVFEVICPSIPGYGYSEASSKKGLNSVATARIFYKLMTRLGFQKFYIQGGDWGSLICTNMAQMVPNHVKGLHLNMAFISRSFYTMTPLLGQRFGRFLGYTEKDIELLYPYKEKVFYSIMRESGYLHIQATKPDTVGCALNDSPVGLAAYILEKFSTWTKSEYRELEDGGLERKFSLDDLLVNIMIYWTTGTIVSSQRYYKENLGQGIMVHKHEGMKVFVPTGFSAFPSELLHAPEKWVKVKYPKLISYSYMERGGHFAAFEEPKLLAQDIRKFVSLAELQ

[2] = target: T1, Epoxide hydrolase 1 (Rattus norvegicus); experiment: Percent Enantiomeric composition (S,S) of trans-Dihydrodiol formed by Microsomal Epoxide Hydrolase from rat liver at 50 mM Tris-HCl buffer, pH 8.4 at 37 degrees C
[3] = target: Epoxide hydrolase 1 (Oryctolagus cuniculus) (UniProt P04068); experiment: Percent Enantiomeric composition (R,R) of trans-Dihydrodiol formed by Microsomal Epoxide Hydrolase from rabbit liver microsomes
Sequence of Epoxide hydrolase 1 (Oryctolagus cuniculus) (P04068 whole entry, looked up): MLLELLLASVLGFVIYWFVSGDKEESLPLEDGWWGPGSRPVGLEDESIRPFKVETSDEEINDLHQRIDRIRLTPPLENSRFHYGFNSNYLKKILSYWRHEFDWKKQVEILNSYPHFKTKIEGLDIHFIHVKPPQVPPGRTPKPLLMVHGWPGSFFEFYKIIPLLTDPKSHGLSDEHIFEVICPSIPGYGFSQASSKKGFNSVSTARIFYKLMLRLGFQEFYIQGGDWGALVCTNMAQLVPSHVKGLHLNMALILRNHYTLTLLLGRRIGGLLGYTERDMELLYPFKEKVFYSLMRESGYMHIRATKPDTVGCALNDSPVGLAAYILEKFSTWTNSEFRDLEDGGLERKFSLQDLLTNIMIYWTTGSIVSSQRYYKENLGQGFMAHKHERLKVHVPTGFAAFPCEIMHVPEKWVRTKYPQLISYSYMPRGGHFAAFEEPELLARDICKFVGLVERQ

[4] = target: Epoxide hydrolase 1 (Oryctolagus cuniculus) (UniProt P04068); experiment: Percent Enantiomeric composition (S,S) of trans-Dihydrodiol formed by Microsomal Epoxide Hydrolase from rabbit liver microsomes

Row | Compound | Enantiomeric composition [1] | Enantiomeric composition [2] | Enantiomeric composition [3] | Enantiomeric composition [4]
1 | c1ccc2c(c1)c1cccc3c1c1c(cccc21)C1OC31 (stereo not drawn) | 83% | 17% |  | 
2 | c1cc2c3c(c1)ccc1cccc(c13)C1OC21 (stereo not drawn) | 86% | 14% |  | 
3 | C1=CC2OC2C=C1 (stereo not drawn) |  |  | 82% | 18%
4 | c1ccc2c(c1)-c1ccccc1C1OC21 (stereo not drawn) | 42% | 58% |  | 
